Laboratory results: PubChem BioAssay (NCI)
Values after ≈ are worked out from the molar mass of the structure shown.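 Cells were grown in 96-well plates and exposed to each compound for 48 hours at five concentrations; endpoints were interpolated linearly between bracketing concentrations, or set to the highest concentration if not reached. The concentration for 50% growth inhibition is given as GI50. TGI is the concentration that stops growth completely.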

Tests used:
Assay in all cases: growth of human tumour cells (NCI), 48 h
RPMI-8226 leukemia = tested on: RPMI-8226 leukemia
CCRF-CEM leukemia = tested on: CCRF-CEM leukemia
NCI-H23 lung = tested on: NCI-H23 lung
HOP-92 NSCLC = tested on: HOP-92 NSCLC
BT-549 breast = tested on: BT-549 breast
LOX IMVI melanoma = tested on: LOX IMVI melanoma
UO-31 renal = tested on: UO-31 renal
U251 CNS = tested on: U251 CNS
KM12 colon = tested on: KM12 colon
SNB-75 CNS = tested on: SNB-75 CNS
UACC-62 melanoma = tested on: UACC-62 melanoma
NCI-H460 lung = tested on: NCI-H460 lung
ACHN renal = tested on: ACHN renal
EKVX NSCLC = tested on: EKVX NSCLC
IGROV1 ovarian = tested on: IGROV1 ovarian
MDA-MB-435 = tested on: MDA-MB-435
M14 melanoma = tested on: M14 melanoma
SW-620 colon = tested on: SW-620 colon
HCT-116 colon = tested on: HCT-116 colon
MOLT-4 leukemia = tested on: MOLT-4 leukemia
PC-3 prostate = tested on: PC-3 prostate
OVCAR-4 ovarian = tested on: OVCAR-4 ovarian
DU-145 prostate = tested on: DU-145 prostate
MDA-MB-231 breast = tested on: MDA-MB-231 breast
SK-MEL-2 melanoma = tested on: SK-MEL-2 melanoma
OVCAR-5 ovarian = tested on: OVCAR-5 ovarian
SN12C renal = tested on: SN12C renal
HL-60(TB) leukemia = tested on: HL-60(TB) leukemia
OVCAR-3 ovarian = tested on: OVCAR-3 ovarian
SK-MEL-28 melanoma = tested on: SK-MEL-28 melanoma
UACC-257 melanoma = tested on: UACC-257 melanoma
OVCAR-8 ovarian = tested on: OVCAR-8 ovarian
SF-268 CNS = tested on: SF-268 CNS
HCT-15 colon = tested on: HCT-15 colon
HS 578T breast = tested on: HS 578T breast
786-0 renal = tested on: 786-0 renal
SF-295 CNS = tested on: SF-295 CNS
SK-MEL-5 melanoma = tested on: SK-MEL-5 melanoma
MCF7 breast = tested on: MCF7 breast
HCC-2998 colon = tested on: HCC-2998 colon
K-562 leukemia = tested on: K-562 leukemia
HT29 colon = tested on: HT29 colon
NCI-H522 lung = tested on: NCI-H522 lung
NCI/ADR-RES ovarian = tested on: NCI/ADR-RES ovarian
NCI-H226 lung = tested on: NCI-H226 lung
A498 renal = tested on: A498 renal
HOP-62 NSCLC = tested on: HOP-62 NSCLC
SNB-19 CNS = tested on: SNB-19 CNS
SF-539 CNS = tested on: SF-539 CNS
RXF 393 renal = tested on: RXF 393 renal
TK-10 renal = tested on: TK-10 renal
CAKI-1 renal = tested on: CAKI-1 renal
MALME-3M melanoma = tested on: MALME-3M melanoma
A549 NSCLC = tested on: A549 NSCLC
SK-OV-3 ovarian = tested on: SK-OV-3 ovarian

`COc1cc(C=C2C(=O)NC(=O)NC2=O)ccc1OCc1ccccc1` was tested, and the GI50 (RPMI-8226 leukemia) was 22.3 µg/mL, the GI50 (CCRF-CEM leukemia) was 79.7 µg/mL and the GI50 (NCI-H23 lung) was 69.9 µg/mL. It also gave a GI50 (HOP-92 NSCLC) of 71.8 µg/mL (≈ 204 µM), a GI50 (BT-549 breast) of 33.9 µg/mL and a GI50 (LOX IMVI melanoma) of 87.8 µg/mL. For the same molecule, the GI50 (UO-31 renal) was 61.2 µg/mL.
In the case of `C=CC(=O)N1CCN(CCCn2c(=O)c(-c3c(Cl)c(OC)cc(OC)c3Cl)cc3cnc(NC)nc32)CC1`, the GI50 (U251 CNS) was 2.57 µM, the TGI (U251 CNS) was 17 µM and the GI50 (KM12 colon) was 4.61 µM. It also gave a TGI (KM12 colon) of 19.9 µM, a TGI (SNB-75 CNS) of 9.36 µM and a GI50 (UACC-62 melanoma) of 2.79 µM. The TGI (UACC-62 melanoma) was 15.1 µM, the GI50 (NCI-H460 lung) was 3.22 µM and the TGI (NCI-H460 lung) was 19 µM. The GI50 (RPMI-8226 leukemia) was 1.03 µM, the TGI (RPMI-8226 leukemia) was 4.09 µM and the GI50 (ACHN renal) was 0.71 µM. For the same molecule, the TGI (ACHN renal) was 11.6 µM, the GI50 (EKVX NSCLC) was 4.38 µM and the TGI (EKVX NSCLC) was 19.6 µM. For the same molecule, the GI50 (IGROV1 ovarian) was 0.888 µM, the TGI (IGROV1 ovarian) was 13.8 µM and the GI50 (MDA-MB-435) was 2.74 µM. It also gave a TGI (MDA-MB-435) of 13.8 µM, a GI50 (M14 melanoma) of 1.67 µM and a TGI (M14 melanoma) of 16.8 µM. It also gave a GI50 (SW-620 colon) of 4.07 µM, a TGI (SW-620 colon) of 34.2 µM and a GI50 (HCT-116 colon) of 2.63 µM. For the same molecule, the TGI (HCT-116 colon) was 17.1 µM, the GI50 (CCRF-CEM leukemia) was 2.04 µM and the TGI (CCRF-CEM leukemia) was 11.9 µM. The GI50 (MOLT-4 leukemia) was 1.83 µM, the TGI (MOLT-4 leukemia) was greater than 100 µM and the GI50 (PC-3 prostate) was 2.5 µM. The TGI (PC-3 prostate) was 11.4 µM, the GI50 (OVCAR-4 ovarian) was 1.14 µM and the TGI (OVCAR-4 ovarian) was 25 µM. The GI50 (DU-145 prostate) was 2.69 µM, the TGI (DU-145 prostate) was 17.7 µM and the GI50 (MDA-MB-231 breast) was 3.52 µM. The TGI (MDA-MB-231 breast) was 14.6 µM, the GI50 (SK-MEL-2 melanoma) was 1.13 µM and the TGI (SK-MEL-2 melanoma) was 6.31 µM. It also gave a GI50 (OVCAR-5 ovarian) of 15.8 µM, a TGI (OVCAR-5 ovarian) of 33.5 µM and a GI50 (SN12C renal) of 3.13 µM. The TGI (SN12C renal) was 16.2 µM, the GI50 (HL-60(TB) leukemia) was 2.8 µM and the TGI (HL-60(TB) leukemia) was 29 µM. The GI50 (NCI-H23 lung) was 5.57 µM, the TGI (NCI-H23 lung) was 20.9 µM and the GI50 (OVCAR-3 ovarian) was 5.6 µM. The TGI (OVCAR-3 ovarian) was 20.4 µM, the GI50 (SK-MEL-28 melanoma) was 7.07 µM and the TGI (SK-MEL-28 melanoma) was 20.9 µM. The GI50 (UACC-257 melanoma) was 3.8 µM, the TGI (UACC-257 melanoma) was 18 µM and the GI50 (BT-549 breast) was 0.681 µM. The TGI (BT-549 breast) was 16 µM, the GI50 (OVCAR-8 ovarian) was 3.95 µM and the TGI (OVCAR-8 ovarian) was 22.9 µM. It also gave a GI50 (SF-268 CNS) of 3.02 µM, a TGI (SF-268 CNS) of 21.3 µM and a GI50 (HCT-15 colon) of 2.63 µM. The TGI (HCT-15 colon) was 15 µM, the GI50 (HS 578T breast) was 2.25 µM and the TGI (HS 578T breast) was 51.8 µM. It also gave a GI50 (786-0 renal) of 1.32 µM, a TGI (786-0 renal) of 17.2 µM and a GI50 (SF-295 CNS) of 3.54 µM. It also gave a TGI (SF-295 CNS) of 16.5 µM, a GI50 (SK-MEL-5 melanoma) of 1.65 µM and a TGI (SK-MEL-5 melanoma) of 12.3 µM. It also gave a GI50 (MCF7 breast) of 8.06 µM, a TGI (MCF7 breast) of 31.8 µM and a GI50 (HCC-2998 colon) of 10.9 µM. For the same molecule, the TGI (HCC-2998 colon) was 24.6 µM, the GI50 (LOX IMVI melanoma) was 1.67 µM and the TGI (LOX IMVI melanoma) was 15 µM. The GI50 (K-562 leukemia) was 5.96 µM, the TGI (K-562 leukemia) was greater than 100 µM and the GI50 (HT29 colon) was 4.4 µM. The TGI (HT29 colon) was 20 µM, the GI50 (NCI-H522 lung) was 2.51 µM and the TGI (NCI-H522 lung) was 14.6 µM. For the same molecule, the GI50 (UO-31 renal) was 0.849 µM, the TGI (UO-31 renal) was 12.4 µM and the GI50 (NCI/ADR-RES ovarian) was 7.12 µM. It also gave a TGI (NCI/ADR-RES ovarian) of 67.6 µM, a GI50 (NCI-H226 lung) of 0.0408 µM and a TGI (NCI-H226 lung) of 20.7 µM. It also gave a TGI (A498 renal) of 1.81 µM, a GI50 (HOP-62 NSCLC) of 5.56 µM and a TGI (HOP-62 NSCLC) of 19.3 µM. For the same molecule, the GI50 (SNB-19 CNS) was 7.32 µM, the TGI (SNB-19 CNS) was 20.7 µM and the GI50 (SF-539 CNS) was 1.58 µM. The TGI (SF-539 CNS) was 9.5 µM, the GI50 (RXF 393 renal) was 1.33 µM and the TGI (RXF 393 renal) was 12.9 µM. It also gave a GI50 (TK-10 renal) of 1.75 µM, a TGI (TK-10 renal) of 16.6 µM and a GI50 (CAKI-1 renal) of 0.782 µM. For the same molecule, the TGI (CAKI-1 renal) was 13.6 µM, the GI50 (MALME-3M melanoma) was 1.7 µM and the TGI (MALME-3M melanoma) was 12.5 µM. It also gave a GI50 (A549 NSCLC) of 4.41 µM, a TGI (A549 NSCLC) of 19.7 µM and a GI50 (SK-OV-3 ovarian) of 2.18 µM. The TGI (SK-OV-3 ovarian) was 8.38 µM.
